{"source": "ChEMBL document CHEMBL1201862", "about": "“PubChem BioAssay data set” (2004)", "key": {"[1]": {"target": "Potassium voltage-gated channel subfamily KQT member 2 (Rattus norvegicus, UniProt O88943, W236L)", "sequence (O88943 whole entry W236L)": "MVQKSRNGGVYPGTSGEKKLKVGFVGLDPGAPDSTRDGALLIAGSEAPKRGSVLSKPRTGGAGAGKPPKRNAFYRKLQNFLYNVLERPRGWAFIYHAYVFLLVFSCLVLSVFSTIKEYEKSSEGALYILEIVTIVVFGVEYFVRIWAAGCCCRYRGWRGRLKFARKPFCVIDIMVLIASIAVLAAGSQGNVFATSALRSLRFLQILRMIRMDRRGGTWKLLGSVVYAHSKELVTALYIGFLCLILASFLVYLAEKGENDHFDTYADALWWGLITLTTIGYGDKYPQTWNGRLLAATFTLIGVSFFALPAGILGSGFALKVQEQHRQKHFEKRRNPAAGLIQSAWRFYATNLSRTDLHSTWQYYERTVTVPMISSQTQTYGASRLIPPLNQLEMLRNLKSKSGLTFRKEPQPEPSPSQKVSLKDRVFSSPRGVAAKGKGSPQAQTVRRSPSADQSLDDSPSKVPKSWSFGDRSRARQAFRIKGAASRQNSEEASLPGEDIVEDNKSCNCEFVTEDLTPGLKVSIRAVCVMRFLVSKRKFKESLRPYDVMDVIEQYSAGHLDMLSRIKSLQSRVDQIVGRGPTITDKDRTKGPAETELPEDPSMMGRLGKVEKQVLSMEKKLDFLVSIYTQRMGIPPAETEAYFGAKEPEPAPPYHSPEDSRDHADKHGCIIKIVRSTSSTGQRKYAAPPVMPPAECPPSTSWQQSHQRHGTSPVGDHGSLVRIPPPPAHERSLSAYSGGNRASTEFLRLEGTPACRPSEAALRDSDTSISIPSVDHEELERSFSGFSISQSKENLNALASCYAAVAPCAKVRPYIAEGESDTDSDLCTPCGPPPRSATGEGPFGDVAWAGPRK", "assay": "potentiation of rat KCNQ2 current – cell-based, automated electrophysiology, mechanism study for KCNQ2 potentiator project, dose response (AID 2603)", "type": "functional"}, "[2]": {"assay": "NIH3T3 cell viability loss – ATP luminescence, mouse fibroblasts, counter-screen, dose response (AID 2010);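 also: cells exposed to compound for about 90 hours before reading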", "type": "functional, cell-based"}, "[3]": {"target": "Sphingosine 1-phosphate receptor 3 (Homo sapiens, UniProt Q99500)", "sequence (Q99500 whole entry)": "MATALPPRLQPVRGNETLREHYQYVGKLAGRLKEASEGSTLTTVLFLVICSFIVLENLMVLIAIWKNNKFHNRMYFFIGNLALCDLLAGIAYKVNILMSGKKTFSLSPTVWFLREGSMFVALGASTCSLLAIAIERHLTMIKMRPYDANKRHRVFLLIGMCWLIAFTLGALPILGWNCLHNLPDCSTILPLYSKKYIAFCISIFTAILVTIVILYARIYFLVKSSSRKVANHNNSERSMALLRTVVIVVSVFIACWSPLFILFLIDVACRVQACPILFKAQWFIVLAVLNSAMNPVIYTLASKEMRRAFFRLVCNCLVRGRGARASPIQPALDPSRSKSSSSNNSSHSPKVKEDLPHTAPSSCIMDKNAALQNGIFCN", "assay": "Dose response cell-based high throughput screening assay for antagonists of the Sphingosine 1-Phosphate Receptor 3 (S1P3). [Related pubchem assays: 1429, 485 ]", "type": "functional"}, "[4]": {"target": "5-hydroxytryptamine receptor 1E (Homo sapiens, UniProt P28566)", "sequence (P28566 whole entry)": "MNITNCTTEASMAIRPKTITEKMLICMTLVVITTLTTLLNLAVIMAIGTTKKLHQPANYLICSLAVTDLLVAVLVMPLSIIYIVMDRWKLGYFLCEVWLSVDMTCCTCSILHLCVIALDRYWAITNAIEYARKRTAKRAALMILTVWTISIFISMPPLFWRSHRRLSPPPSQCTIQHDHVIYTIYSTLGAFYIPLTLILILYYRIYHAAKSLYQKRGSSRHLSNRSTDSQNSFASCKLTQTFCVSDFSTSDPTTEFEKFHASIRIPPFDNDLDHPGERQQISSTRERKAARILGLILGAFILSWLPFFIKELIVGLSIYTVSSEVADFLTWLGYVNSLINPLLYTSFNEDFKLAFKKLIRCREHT", "assay": "Counterscreen assay for S1P3 antagonists: Dose response cell-based high throughput screening assay to identify antagonists of the 5-Hydroxytryptamine Receptor Subtype 1E (5HT1E). [Related pubchem assays: 1429, 485 ]", "type": "functional"}, "[5]": {"assay": "Trypanosoma cruzi growth suppression in host cells – NIH3T3 host cells, beta-gal luminescence, confirmation (AID 2044);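 also: intracellular parasites grown in NIH/3T3 mouse fibroblasts as host cells; luminescent beta-galactosidase reporter signal from transgenic T. cruzi replicating inside host cells; inhibitors lower the luminescence signal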", "type": "functional, cell-based"}, "[6]": {"target": "Photoreceptor-specific nuclear receptor (Homo sapiens, UniProt Q9Y5X4)", "sequence (Q9Y5X4 whole entry)": "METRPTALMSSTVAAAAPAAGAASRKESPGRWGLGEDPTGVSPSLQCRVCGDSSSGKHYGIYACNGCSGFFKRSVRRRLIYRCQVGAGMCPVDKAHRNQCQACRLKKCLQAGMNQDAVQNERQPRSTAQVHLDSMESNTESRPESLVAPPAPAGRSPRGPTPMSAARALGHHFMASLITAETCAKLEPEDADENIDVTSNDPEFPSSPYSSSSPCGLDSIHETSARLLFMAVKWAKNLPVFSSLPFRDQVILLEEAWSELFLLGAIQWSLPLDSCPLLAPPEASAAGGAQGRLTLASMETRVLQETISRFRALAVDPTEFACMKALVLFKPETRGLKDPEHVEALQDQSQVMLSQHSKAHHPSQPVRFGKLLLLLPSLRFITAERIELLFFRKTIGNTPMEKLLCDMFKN", "type": "functional, cell-based"}, "[7]": {"target": "T1, Replicative DNA helicase DnaB (Mycobacterium tuberculosis, UniProt P9WMR3)", "T1 sequence (P9WMR3 whole entry)": "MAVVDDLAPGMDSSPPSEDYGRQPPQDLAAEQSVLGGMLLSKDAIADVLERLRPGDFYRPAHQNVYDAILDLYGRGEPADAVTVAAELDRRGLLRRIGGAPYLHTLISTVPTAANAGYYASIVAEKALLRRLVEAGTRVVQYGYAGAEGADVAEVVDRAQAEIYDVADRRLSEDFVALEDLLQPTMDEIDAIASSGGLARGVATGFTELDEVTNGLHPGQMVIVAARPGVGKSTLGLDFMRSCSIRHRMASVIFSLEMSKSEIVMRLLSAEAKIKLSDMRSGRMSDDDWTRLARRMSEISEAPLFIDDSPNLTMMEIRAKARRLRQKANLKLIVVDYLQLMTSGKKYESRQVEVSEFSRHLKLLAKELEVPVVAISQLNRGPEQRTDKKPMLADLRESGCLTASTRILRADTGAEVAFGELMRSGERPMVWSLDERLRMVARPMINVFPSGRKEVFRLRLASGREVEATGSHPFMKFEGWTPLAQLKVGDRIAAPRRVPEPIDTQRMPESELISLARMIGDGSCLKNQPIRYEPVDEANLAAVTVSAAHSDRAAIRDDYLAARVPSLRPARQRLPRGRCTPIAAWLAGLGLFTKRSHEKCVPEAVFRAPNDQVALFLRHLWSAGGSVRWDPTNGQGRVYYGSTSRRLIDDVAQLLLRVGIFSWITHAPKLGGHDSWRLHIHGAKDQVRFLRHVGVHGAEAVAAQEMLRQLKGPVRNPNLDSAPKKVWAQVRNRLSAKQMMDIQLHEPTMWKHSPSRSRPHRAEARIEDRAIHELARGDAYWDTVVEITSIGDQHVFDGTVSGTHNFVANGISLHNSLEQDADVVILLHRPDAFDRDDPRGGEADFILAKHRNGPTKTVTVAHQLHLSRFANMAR", "assay": "DnaB intein splicing inhibitors, dose response, biochemical, cell-free fluorescence (AID 449749)", "type": "functional"}, "Protein RecA": {"target": "T2, Protein RecA (Mycobacterium tuberculosis, UniProt P9WHJ3)", "T2 sequence (P9WHJ3 whole entry)": "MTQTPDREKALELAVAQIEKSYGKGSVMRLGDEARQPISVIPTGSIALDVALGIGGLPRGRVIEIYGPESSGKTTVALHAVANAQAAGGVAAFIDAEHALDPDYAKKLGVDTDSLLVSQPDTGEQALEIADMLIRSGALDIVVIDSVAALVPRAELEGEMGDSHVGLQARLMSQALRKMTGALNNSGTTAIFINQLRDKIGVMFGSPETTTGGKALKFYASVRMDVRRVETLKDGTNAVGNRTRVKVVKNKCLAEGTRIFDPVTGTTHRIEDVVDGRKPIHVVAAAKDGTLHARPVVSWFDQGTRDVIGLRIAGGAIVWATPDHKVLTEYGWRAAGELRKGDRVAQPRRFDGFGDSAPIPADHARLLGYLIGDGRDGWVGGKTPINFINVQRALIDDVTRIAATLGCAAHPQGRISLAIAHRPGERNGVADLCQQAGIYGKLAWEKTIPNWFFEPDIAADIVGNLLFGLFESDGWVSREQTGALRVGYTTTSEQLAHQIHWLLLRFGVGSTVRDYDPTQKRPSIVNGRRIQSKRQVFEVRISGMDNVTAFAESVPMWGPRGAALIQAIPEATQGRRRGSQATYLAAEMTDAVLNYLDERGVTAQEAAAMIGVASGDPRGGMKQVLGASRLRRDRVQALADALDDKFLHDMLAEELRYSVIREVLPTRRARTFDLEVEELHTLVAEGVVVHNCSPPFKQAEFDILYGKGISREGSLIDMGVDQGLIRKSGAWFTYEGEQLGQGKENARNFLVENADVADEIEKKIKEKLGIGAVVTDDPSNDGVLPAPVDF", "assay": "Fluorescence Cell-Free Homogeneous Dose Retest to Identify Inhibitors of RecA-Intein Splicing Activity. [Related pubchem assays (depositor defined):AID2097, AID2223, AID489010, AID492950]", "type": "functional"}, "[8]": {"target": "T3, Neuropeptide Y receptor type 1 (Homo sapiens, UniProt P25929)", "T3 sequence (P25929 whole entry)": "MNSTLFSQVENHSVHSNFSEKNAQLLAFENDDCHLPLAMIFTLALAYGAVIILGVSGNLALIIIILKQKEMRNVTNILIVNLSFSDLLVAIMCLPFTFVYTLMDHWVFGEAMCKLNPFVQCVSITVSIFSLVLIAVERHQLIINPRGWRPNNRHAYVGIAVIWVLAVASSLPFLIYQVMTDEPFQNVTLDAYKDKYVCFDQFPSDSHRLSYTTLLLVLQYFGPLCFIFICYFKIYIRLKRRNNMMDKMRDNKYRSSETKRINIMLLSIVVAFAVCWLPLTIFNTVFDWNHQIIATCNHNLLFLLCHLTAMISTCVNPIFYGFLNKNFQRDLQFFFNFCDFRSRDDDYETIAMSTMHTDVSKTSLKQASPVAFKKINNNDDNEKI", "assay": "Fluorescence-based counterscreen for potentiators or agonists of NPY-Y2: cell-based high-throughput dose response assay for potentiators or agonists of NPY-Y1.", "type": "functional"}, "[9]": {"target": "T3, Neuropeptide Y receptor type 1", "assay": "Fluorescence-based counterscreen for agonists of NPY-Y2: cell-based high-throughput dose response assay for agonists of NPY-Y1.", "type": "functional"}, "[10]": {"target": "T4, Neuropeptide Y receptor type 2 (Homo sapiens, UniProt P49146)", "T4 sequence (P49146 whole entry)": "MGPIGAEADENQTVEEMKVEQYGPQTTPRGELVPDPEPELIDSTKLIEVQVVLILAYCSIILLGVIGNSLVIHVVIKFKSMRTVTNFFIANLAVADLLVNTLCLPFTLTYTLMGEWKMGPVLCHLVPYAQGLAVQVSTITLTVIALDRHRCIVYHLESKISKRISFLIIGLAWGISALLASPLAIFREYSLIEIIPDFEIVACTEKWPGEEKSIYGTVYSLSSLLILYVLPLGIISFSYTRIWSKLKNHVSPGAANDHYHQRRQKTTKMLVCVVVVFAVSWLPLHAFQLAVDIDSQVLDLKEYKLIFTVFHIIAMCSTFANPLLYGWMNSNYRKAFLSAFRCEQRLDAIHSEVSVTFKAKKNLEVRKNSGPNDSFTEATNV", "assay": "Fluorescence-based cell-based high-throughput dose response assay for agonists of NPY-Y2. [Related pubchem assays: 1703 (Screening assay (CNGC inhibitors).), 1359 (Screening assay (NPY-Y2 potentiators or agonists).), 1304 (Screening assay (NPY-Y1 potentiators or agonists).), 1710 (Screening assay (NPY-Y2 agonists).), 1791 (Summary AID.)]", "type": "functional"}, "Streptokinase A": {"target": "T5, Streptokinase A (Streptococcus pyogenes serotype M1, UniProt P10520)", "T5 sequence (P10520 whole entry)": "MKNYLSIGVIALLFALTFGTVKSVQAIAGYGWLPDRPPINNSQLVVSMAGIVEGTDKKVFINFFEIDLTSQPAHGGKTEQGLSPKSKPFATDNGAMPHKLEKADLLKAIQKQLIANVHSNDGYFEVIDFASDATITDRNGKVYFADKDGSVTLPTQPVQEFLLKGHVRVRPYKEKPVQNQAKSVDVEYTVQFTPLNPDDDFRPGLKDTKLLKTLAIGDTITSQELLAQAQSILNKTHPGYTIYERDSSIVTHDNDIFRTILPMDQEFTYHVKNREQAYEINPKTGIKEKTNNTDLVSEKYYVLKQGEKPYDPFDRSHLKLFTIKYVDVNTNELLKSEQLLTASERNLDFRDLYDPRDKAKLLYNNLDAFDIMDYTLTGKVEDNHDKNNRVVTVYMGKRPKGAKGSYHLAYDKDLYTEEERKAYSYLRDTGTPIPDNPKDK", "assay": "viability-normalized secreted streptokinase activity reduction – plasminogen activation absorbance, OD405, dose response (AID 1914);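 also: secreted streptokinase activity via plasminogen activation per viability signal from cell pellet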", "type": "functional, Streptococcus pyogenes M1 GAS"}, "[11]": {"target": "T4, Neuropeptide Y receptor type 2", "assay": "Fluorescence-based cell-based high-throughput dose response assay for potentiators or agonists of NPY-Y2. [Related pubchem assays: 1539 (Screening assay (NPY-Y2 potentiators or agonists).), 1703 (Screening assay (CNGC inhibitors).), 1359 (Screening assay (NPY-Y2 potentiators or agonists).), 1304 (Screening assay (NPY-Y1 potentiators or agonists).) …", "type": "functional"}}, "note": "Active and inactive are the calls of the source.", "data": [{"smiles": "CC1=C(C(=O)OC2CCCCCCC2)C(c2cccc(O)c2)NC(=O)N1", "note": "(stereo not drawn)", "values": [{"measurement": "EC50", "setting": "[1]", "value": "537 µM (active)"}]}, {"smiles": "O=C(Nc1ccc2ccccc2c1)C(c1ccccc1)C1CCCC1", "note": "(stereo not drawn)", "values": [{"measurement": "EC50", "setting": "[2]", "value": "> 30 µM (not active)"}, {"measurement": "IC50", "setting": "[3]", "value": "2.1 µM (active)"}, {"measurement": "IC50", "setting": "[4]", "value": "1.85 µM (active)"}, {"measurement": "EC50", "setting": "[5]", "value": "2.42 µM (active)"}]}, {"smiles": "O=[N+]([O-])c1cc(C(F)(F)F)cc([N+](=O)[O-])c1NCCNC(=S)Nc1ccc(Cl)c(Cl)c1", "values": [{"measurement": "IC50", "setting": "[6]", "value": "7.03 µM (active)"}, {"measurement": "AC50", "setting": "[7]", "value": "4.92 µM (active)"}, {"measurement": "EC50", "setting": "Protein RecA", "value": "303 µM (active)"}, {"measurement": "EC50", "setting": "[8]", "value": "11.2 µM (not active)"}, {"measurement": "EC50", "setting": "[9]", "value": "6 µM (active)"}, {"measurement": "EC50", "setting": "[10]", "value": "8.24 µM (active)"}, {"measurement": "EC50", "setting": "Streptokinase A", "value": "7.06 µM (inconclusive)"}, {"measurement": "EC50", "setting": "[11]", "value": "8.69 µM (active)"}]}]}
